Earlier results, collected in patent US12116608B2, “Extended metabolism methods for increasing and extracting metabolites from algae and microorganisms” (Synergraze Inc., priority 2022, dated 2024).

Settings: general description

## BrC(Br)Br [bromoform]
  solubility in water: soluble in water
